{"source": "patent US20230250094A1", "about": "“SMALL MOLECULE INHIBITORS OF TDP-43 ACTIVITY AND USES THEREOF” (Arizona Board of Regents on Behalf of the University of …, priority 2020, published 2023)", "key": {"[1]": {"tested_on": "Drosophila overexpressing TDP-43", "test": "Climbing (negative geotaxis) assay in Drosophila model of ALS overexpressing TDP-43", "type": "in vivo", "details": "fly food supplemented with 50 μM"}, "[2]": {"molecular_target": "T1, TDP-43102-269 (RRM region) (Homo sapiens, UniProt Q13148)", "T1 construct": "made in house", "T1 sequence (Q13148 102-269 limits assumed)": "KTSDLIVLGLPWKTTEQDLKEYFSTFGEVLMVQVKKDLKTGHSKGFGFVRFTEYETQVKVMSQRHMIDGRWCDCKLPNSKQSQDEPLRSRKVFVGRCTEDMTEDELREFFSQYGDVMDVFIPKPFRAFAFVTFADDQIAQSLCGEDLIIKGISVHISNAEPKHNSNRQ", "test": "2D 15N-HSQC NMR of TDP43 102-269 (RRM region) with compound", "type": "binding", "details": "4:1 molar ratio", "description": "(§1) To further characterize where nTRD22 binds on TDP-43, perturbations were measured using a 2D ^15N-HSQC NMR with increasing concentrations of nTRD22, up to a 8:1 molar ratio of nTRD22:TDP-431-260 (FIG. 4). […] To determine if these shifts were due to direct binding of nTRD22 to TDP-43102-269 (RRM region), a 2D ^15HSQC-NMR on TDP43102-269 with nTRD22 at a 4:1 molar ratio was collected (FIG. 4D, E).\n(§2) Heteronuclear Single Quantum Correlation-NMR (HSQC-NMR). NMR spectra were acquired in 40 mM HEPES pH 6.5, 500 mM NaCl, 4 mM DTT with 10% D20 at 100 μM protein concentrations using 5 mm Shigemi NMR tubes. NMR data were collected at 298 K on a Bruker Avance NEO 600 MHz and 800 MHz spectrometers with TCI-H&F/C/N probe. NMR processing and analysis was done using NMRpipe, NMRDraw and NMRFAM-Sparky. Transverse relaxation optimized spectroscopy (TROSY) was used for all HSQC experiments."}, "TDP-431-260 [3]": {"molecular_target": "T2, TDP-431-260 (Homo sapiens, UniProt Q13148)", "T2 construct": "Human TDP-431-260 and TDP43102-269 were expressed as described in our previous studies; made in house", "T2 sequence (Q13148 1-260 limits assumed)": "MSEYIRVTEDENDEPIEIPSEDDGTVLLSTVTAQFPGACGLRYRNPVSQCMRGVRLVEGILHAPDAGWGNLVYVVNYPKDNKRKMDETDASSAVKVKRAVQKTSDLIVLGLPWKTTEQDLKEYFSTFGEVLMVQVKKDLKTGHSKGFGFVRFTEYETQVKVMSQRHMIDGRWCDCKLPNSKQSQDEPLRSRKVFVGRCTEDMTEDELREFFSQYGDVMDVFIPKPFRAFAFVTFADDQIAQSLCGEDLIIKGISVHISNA", "test": "Microscale thermophoresis (MST)", "type": "binding", "details": "NT-647 labeled TDP431-260, 0.03 μM-1 mM compound, mean±SD n=3; read-out: apparent Kd", "description": "FIG. 3. Modeling of binding and affinity of nTRD22 for TDP-43. A. Structure of N-(2-(3-hydroxypiperidin-1-yl)ethyl)-5-((3-(trifluoromethyl)phenoxy)methyl)isoxazole-3-carboxamide (nTRD22). B. 2D representation of nTRD22 binding pocket in TDP-43 NTD. C. MST values from thermographs of NT-647 labeled TDP431-260 in presence of increasing concentrations (0.03 μM-1 mM) of nTRD22 were used to determine dissociation constant for binding of nTRD22 to TDP431-260. […] Data is presented as mean±SD (n=3).\nIn-silico docking of nTRD22 predicted interactions with Q3, Y43, S48, G59, and A66 (FIG. 3A). ^1H-NMR of nTRD22 was used to evaluate the on-resonance energy transfer from STD-NMR of nTRD22 with TDP-431-260. The peaks seen in the STD-NMR spectrum were in the region of the benzyl group (ii, 6.9-7.2 ppm) (FIG. 2C) confirming the […] interaction of the benzene group of nTRD22 with Tyr43, predicted by virtual screening.\nMicroscale Thermophoresis (MST). Microscale thermophoresis experiments were performed using a NanoTemper Monolith Instrument (NT.115), similarly to Frangois-Moutal, L.; et al., ACS Chem. Biol. 2019, 14, 2006-2013."}, "[4]": {"molecular_target": "T3, TDP-431-260 binding to its canonical RNA sequence (UG6) (Homo sapiens, UniProt Q13148)", "T3 construct": "TDP-431-260-His (0.75 nM) and a single concentration of biotinylated-UG6 RNA (0.6 nM); made in house", "T3 sequence (Q13148 1-260 limits assumed)": "as above", "test": "Amplified luminescent proximity homogeneous alpha assay (ALPHA), RNA/TDP-43 disruption", "details": "TDP-431-260-His 0.75 nM, biotinylated-UG6 RNA 0.6 nM; read-out: IC50 of disruption of TDP-431-260 / UG6 RNA interaction", "description": "FIG. 5. RNA/TDP-43 disruption by nTRD22. A concentration-dependent curve was obtained for nTRD22's disruption of nucleic acid-TDP-431-260 interaction at a single RNA concentration (0.6 nM). Data is represented as mean±SEM (n=3).\nTo define which residues in the RRM domains were affected, the chemical-shift perturbations (CSP) induced by nTRD22 were mapped onto the known structure of TDP-43102-269 (PDB: 4bs2^15) using a color gradient (FIG. 4F,G). […] More precisely, L106/1107 and G148/V150 are part of RNP-2 and RNP-1 of RRM1 respectively, while C196 is part of RNP-2 in RRM2^16. Moreover, C173 is also shown to be affected in presence of RNA^15. […] It should be noted that in repeated experiments, different residues are shifted and although one representative spectrum is shown here (FIG. 4), the average shift from three experiments are also reported (FIG. 10). […] To test this, an amplified luminescent proximity homogeneous (alpha) assay recently developed for another compound targeting TDP-43^17 was used. TDP-431-260 binding to its canonical RNA sequence (UG6) was measured with ranging concentrations of compound and nTRD22 was able to inhibit 50% of the interaction with an IC50 of ˜100 μM (FIG. 5).\nAmplified luminescent proximity homogeneous alpha assay (ALPHA). […]"}, "EGFP": {"tested_on": "EGFP", "test": "EGFP control-transfected rodent primary cortical neurons, fluorescence", "type": "cell-based, rat", "details": "5 to 100 μM", "description": "(§3) FIG. 6. nTRD22 effect on primary cortical neurons. Confocal images of rodent primary cortical neurons with transfected TDP43-EGFP with A. DMSO, or B. […] nTRD22. Quantitation of GFP signal in TDP-43-EGFP (C) or EGFP (D) transfected primary neurons treated with increasing concentration of nTRD22 or DMSO. Data is presented as mean±SEM (n≥183 neurons from 8 technical and 3 biological replicates). Statistical difference was assessed by a Kruskal-Wallis test (*** p<0.001; **p=0.01).\n(§4) To test this, TDP-43 fused to enhanced green fluorescent protein (TDP43-EGFP) was expressed in rodent primary cortical neurons, applied nTRD22 at concentrations ranging from 5 to 100 μM, and imaged GFP positive cells by automated fluorescence microscopy^1819. […] No changes in the fluorescence of control cells transfected with EGFP was observed (FIG. 6D).\n(§5) Cell culture and transfection. […]\n(§6) Fluorescence microscopy. […]\n(§7) Image analysis. Custom ImageJ/Fiji macros and Python scripts (described in PMC6050042) were used to identify neurons and draw regions of interest (ROIs) based upon size, morphology, and fluorescence intensity. Additional scripts were used to identify and draw regions of interest (ROIs) surrounding each cell, and measure fluorescence intensity within individual ROIs. […]"}, "TDP43-EGFP": {"molecular_target": "T4, TDP43-EGFP (Homo sapiens, UniProt Q13148)", "T4 construct": "expressed in transfected cells; host or cells: primary cortical neurons from embryonic day 20-21 Long Evans rat pups", "T4 sequence (Q13148 whole entry)": "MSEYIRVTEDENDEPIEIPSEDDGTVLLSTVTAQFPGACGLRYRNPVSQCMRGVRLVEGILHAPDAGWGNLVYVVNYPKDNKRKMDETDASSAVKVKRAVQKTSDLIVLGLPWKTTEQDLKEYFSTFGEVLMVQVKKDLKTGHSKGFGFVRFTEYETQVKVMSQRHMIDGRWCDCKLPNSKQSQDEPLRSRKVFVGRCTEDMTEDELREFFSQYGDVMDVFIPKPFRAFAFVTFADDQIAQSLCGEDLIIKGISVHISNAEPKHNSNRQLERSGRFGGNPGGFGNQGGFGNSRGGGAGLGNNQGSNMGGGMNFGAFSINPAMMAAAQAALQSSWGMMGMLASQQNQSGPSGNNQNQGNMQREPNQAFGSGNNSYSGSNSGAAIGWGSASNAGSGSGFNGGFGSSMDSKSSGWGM", "test": "TDP43-EGFP in rodent primary cortical neurons, automated fluorescence microscopy", "type": "cell-based, rat", "details": "5 to 100 μM", "description": "as §3, §4, §5, §6, §7"}, "TDP-431-260 [5]": {"molecular_target": "T2, TDP-431-260", "test": "STD-NMR screening of compound binding to TDP-43 1-260", "details": "500 μM compound, 5 μM protein", "description": "(§8) FIG. 2. STD-NMR screening for compounds. A. Two different constructs were used for STD-NMR screening. 1D ^1H STD NMR showing on-resonance difference spectrum of 500 μM of compounds nTRD09-16 (B) or nTRD19-28 (C) with 5 μM TDP431-260. D. Positive hits from the first round of STD-NMR screening were tested against TDP43102-269 in the same conditions. Asterisks indicate positive signal.\n(§9) Saturation transfer difference nuclear magnetic resonance (STD-NMR) spectroscopy was then used to screen the binding of the compounds to TDP-431-260. As a negative control, binding to TDP43102-269 lacking the NTD was also determined (FIG. 2A). […]\n(§10) Saturation Transfer Difference Nuclear Magnetic Resonance (STD-NMR). Spectroscopy for small molecule binding. 1D ^1H STD-NMR was performed exactly as previously described (see, Frangois-Moutal, L.; et al., ACS Chem. Biol. 2019, 14, 2006-2013; Frangois-Moutal, L.; et al., ACS Chem. Biol. 2018, 13, 3000-3010)."}, "TDP-431-260 [6]": {"molecular_target": "T2, TDP-431-260", "test": "2D 15N-HSQC NMR of TDP-43 1-260 with compound", "type": "binding", "description": "2D ^15N-HSQC NMR spectrum of each positive hit was tested to further define the binding sites of the small molecule interactions with TDP-43 (FIG. 9). Using TDP-431-260, small molecules were added at a 4:1 molar ratio.\nas §1, §2"}, "TDP43102-269": {"molecular_target": "T5, TDP43102-269 (Homo sapiens, UniProt Q13148)", "T5 construct": "made in house", "T5 sequence (Q13148 102-269)": "as the sequence (Q13148 102-269 limits assumed) above", "test": "STD-NMR negative control on TDP43 102-269 lacking the NTD", "type": "binding", "details": "same conditions, negative control construct", "description": "as §8, §9, §10"}}, "note": "“Also recorded” adds a separate entry of the source.", "data": [{"compound": "O=C(NCCN1CCCC(O)C1)c1cc(COc2cccc(C(F)(F)F)c2)on1", "note": "(stereo not drawn) [nTRD22, N-(2-(3-hydroxypiperidin-1-yl)ethyl)-5-((3-(trifluoromethyl)phenoxy)methyl)isoxazole-3-carboxamide]", "values": [{"measurement": "climbing / motor performance in young (5-6 dpe) and aged (19-20 dpe) flies", "setting": "[1]; versus DMSO 0.05%", "value": "rescue effect was increased in aged flies; also recorded: increased motor performance"}, {"measurement": "climbing / motor performance versus DMSO treated or naive flies", "setting": "[1]; n=60", "value": "significantly able to rescue climbing defects; also recorded: increased motor performance"}, {"measurement": "2D 15N-HSQC chemical shifts on TDP43102-269", "setting": "[2]", "value": "No shifts were observed"}, {"measurement": "Kd", "setting": "TDP-431-260 [3]", "value": "145 ± 3", "unit": "µM"}, {"measurement": "IC50", "setting": "[4]", "value": "~100", "unit": "µM"}, {"measurement": "fluorescence of control cells transfected with EGFP", "setting": "EGFP", "value": "No changes"}, {"measurement": "TDP43-EGFP steady state levels (GFP signal)", "setting": "TDP43-EGFP", "value": "dose-dependent reduction"}, {"measurement": "intranuclear TDP43-EGFP droplet-like structures", "setting": "TDP43-EGFP", "value": "formation of intranuclear TDP43-EGFP droplet-like structures"}, {"measurement": "STD-NMR binding to TDP-431-260", "setting": "TDP-431-260 [5]", "value": "positive hits"}, {"measurement": "2D 15N-HSQC: aggregation / chemical shift perturbations", "setting": "TDP-431-260 [6]; compound:protein 4:1 molar ratio, 100 μM protein", "value": "no protein aggregation with visible chemical shift perturbations"}, {"measurement": "2D 15N-HSQC chemical shifts on titration", "setting": "TDP-431-260 [6]; increasing concentrations up to 8:1 molar ratio nTRD22:TDP-431-260", "value": "the majority of them occurring in the RRM region of the protein"}, {"measurement": "STD-NMR binding to TDP43102-269 (lacking NTD)", "setting": "TDP43102-269", "value": "did not"}]}]}
